Test results as given in patent publication US11180488B2, “Isoxazole o-linked carbamoyl cyclohexyl acids as LPA antagonists” (BRISTOL-MYERS SQUIBB COMPANY, priority 2017, dated 2021).
pIC50: −log10 of the molar value.

Molecular target: T1, human LPA1 (Homo sapiens, UniProt Q92633)
T1 construct: expressed in transfected cells; host or cells: Chinese hamster ovary (CHO) cells
Assay: LPA1 functional antagonist assay (LPA-induced calcium flux)
Type: cell-based
Conditions: CHO cells overexpressing human LPA1; calcium flux induced by 10 nM LPA; read-out: LPA1 IC50
Method: The effectiveness of compounds of the present invention as LPA1 inhibitors can be determined in an LPA1 functional antagonist assay as follows:
Chinese hamster ovary cells overexpressing human LPA1 were plated overnight (15,000 cells/well) in poly-D-lysine coated 384-well microplates (Greiner bio-one, Cat #781946) in DMEM/F12 medium (Gibco, Cat #11039). Following overnight culture, cells were loaded with calcium indicator dye (AAT Bioquest Inc, Cat #34601) for 30 minutes at 37° C. The cells were then equilibrated to room temperature for 30 minutes before the assay. Test compounds solubilized in DMSO were transferred to 384 well non-binding surface plates (Corning, Cat #3575) using the Labcyte Echo acoustic dispense and diluted with assay buffer [1×HBSS with calcium/magnesium (Gibco Cat #14025-092), 20 mM HEPES (Gibco Cat #15630-080) and 0.1% fatty acid free BSA (Sigma Cat #A9205)] to a final concentration of 0.5% DMSO. Diluted compounds were added to the cells by FDSS6000 (Hamamatsu) at final concentrations ranging from 0.08 nM to 5 μM. and were then incubated for 20 min at room temperature at which time LPA (Avanti Polar Lipids Cat #857130C) was added at final concentrations of 10 nM to stimulate the cells. […] IC50 values were determined by fitting data to a 4-parameter logistic equation (GraphPad Prism, San Diego Calif.).

T1 sequence (Q92633 whole entry): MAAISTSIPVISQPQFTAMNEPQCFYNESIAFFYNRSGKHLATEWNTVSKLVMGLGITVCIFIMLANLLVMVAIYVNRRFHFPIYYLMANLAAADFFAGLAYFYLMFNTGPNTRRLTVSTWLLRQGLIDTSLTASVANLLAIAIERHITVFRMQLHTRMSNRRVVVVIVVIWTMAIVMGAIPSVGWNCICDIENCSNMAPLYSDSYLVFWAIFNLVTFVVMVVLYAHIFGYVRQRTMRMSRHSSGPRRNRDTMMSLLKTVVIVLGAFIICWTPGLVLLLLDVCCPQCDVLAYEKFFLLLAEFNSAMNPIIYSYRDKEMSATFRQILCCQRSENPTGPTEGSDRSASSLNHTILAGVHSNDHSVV

Row | pIC50 | Compound
1 | 7.35 | Cc1nc(-c2onc(C)c2COC(=O)N[C@H](C)c2ccccc2)ccc1O[C@H]1CCC[C@H](C(=O)O)C1 [Example 59]
2 | 7.28 | Cc1cc(-c2onc(C)c2COC(=O)N(C)C2CCCC2)ccc1O[C@H]1CCC[C@H](C(=O)O)C1 [Example 64]

Same assay, conditions: CHO cells overexpressing human LPA1; calcium flux induced by 10 nM LPA; read-out: hLPA1 IC50

Row | pIC50 | Compound
3 | 6.99 | Cc1noc(-c2ccc(O[C@H]3CCC[C@H](C(=O)O)C3)cc2)c1COC(=O)N(C)C1CCC1 [Example 36]
4 | 7.60 | [2H]C([2H])([2H])N(C(=O)OCc1c(C)noc1-c1ccc(O[C@H]2CCC[C@H](C(=O)O)C2)cn1)[C@H](C)C1CC1 [Example 66]
5 | 6.37 | Cc1noc(-c2ccc(O[C@H]3CCC[C@H](C(=O)O)C3)cc2)c1COC(=O)N(C)CCC1CCC1 (racemic) [Example 29]
6 | 5.78 | Cc1noc(-c2ccc(O[C@H]3CCC[C@H](C(=O)O)C3)cn2)c1COC(=O)N[C@H](C)C1CC1 [Example 40]
7 | 6.25 | Cc1noc(-c2ccc(OC3CCCC(c4nnn[nH]4)C3)cc2)c1COC(=O)N(C)C1CCCC1 (single isomer, unassigned) [Example 78, (5-(4-((3-(1H-tetrazol-5-yl)cyclohexyl)oxy)phenyl)-3-methylisoxazol-4-yl)methyl cyclopentyl(methyl)carbamate]
8 | 7.03 | Cc1nc(-c2onc(C)c2COC(=O)N(C)C2(c3ccccc3)CC2)ccc1O[C@H]1CCC[C@H](C(=O)O)C1 [Example 16]
9 | 7.54 | Cc1nc(-c2onc(C)c2COC(=O)N(C)CC2CCCC2)ccc1O[C@H]1CCC[C@H](C(=O)O)C1 [Example 21]
10 | 7.34 | Cc1noc(-c2ccc(O[C@H]3CCC[C@H](C(=O)O)C3)cn2)c1COC(=O)N(C)[C@@H](C)C1CC1 [Example 41]
11 | 5.92 | Cc1noc(-c2ccc(O[C@@H]3CCC[C@@H](CC(=O)O)C3)cc2)c1COC(=O)N(C)CCC(C)C [Example 49]
12 | 7.82 | Cc1noc(-c2ccc(O[C@H]3CCC[C@H](C(=O)O)C3)cn2)c1COC(=O)N(C)CCC1CC1 [Example 43]
13 | 7.57 | Cc1nc(-c2onc(C)c2COC(=O)N(C)C2CCCC2)ccc1O[C@H]1CCC[C@@H](C(=O)O)C1 [Example 39]
14 | 7.05 | Cc1noc(-c2ccc(O[C@H]3CCC[C@](C)(C(=O)O)C3)cc2)c1COC(=O)N(C)C1CCCC1 (racemic) [Example 8, (±)-Trans-3-(4-(4-(((cyclopentyl(methyl)carbamoyl)oxy)methyl)-3-methylisoxazol-5-yl)phenoxy)-1-methylcyclohexanecarboxylic Acid]
15 | 7.51 | Cc1nc(-c2onc(C)c2COC(=O)N(C)Cc2ccccc2)ccc1O[C@H]1CCC[C@H](C(=O)O)C1 [Example 18]
16 | 7.89 | Cc1nc(-c2onc(C)c2COC(=O)N(C)CC2CCC2)ccc1O[C@H]1CCC[C@H](C(=O)O)C1 [Example 11]
17 | 7.70 | Cc1noc(-c2ccc(O[C@H]3CCC[C@H](C(=O)O)C3)cn2)c1COC(=O)N(C)[C@H](C)C1CC1 [Example 42]
18 | 6.71 | Cc1onc(-c2ccc(O[C@H]3CCC[C@H](C(=O)O)C3)nc2)c1COC(=O)N(C)C1CCCC1 [Example 54, (1S,3S)-3-((5-(4-(((cyclopentyl(methyl)carbamoyl)oxy)methyl)-5-methylisoxazol-3-yl)pyridin-2-yl)oxy)cyclohexane-1-carboxylic Acid]
19 | 7.32 | Cc1noc(-c2ccc(O[C@@H]3CCC[C@@H](C(=O)O)C3)cc2)c1COC(=O)N(C)C(C)C1CC1 (stereo partly shown) [Example 68]
20 | 7.74 | Cc1noc(-c2ccc(O[C@@H]3CCC[C@@](F)(C(=O)O)C3)cc2)c1COC(=O)N(C)C1CCCC1 (racemic) [Example 3]
21 | 5.66 | Cc1noc(-c2ccc(O[C@@H]3CCC[C@](C)(C(=O)O)C3)cc2)c1COC(=O)N(C)C1CCCC1 (racemic) [Example 7, (±)-Cis-3-(4-(4-(((cyclopentyl(methyl)carbamoyl)oxy)methyl)-3-methylisoxazol-5-yl)phenoxy)-1-methylcyclohexanecarboxylic Acid]
22 | 6.33 | Cc1noc(-c2ccc(O[C@@H]3CCC[C@@H](C(=O)O)C3)cc2)c1COC(=O)N(C)CCC1CCCC1 [Example 28]
